According to paper PMC2716445 (Journal of Biological Inorganic Chemistry, 2009):
Entries after “also recorded” stand apart in the source; their conditions may differ. Read-outs that look alike come from different tables or passages of the source.

How the values were obtained:
[1] = cited from earlier work
[2] = cited from earlier work; remark: listed apart in the source
[3] = SOD activity, xanthine/xanthine oxidase with NBT detection; assay type: biochemical; details: read-out: SOD IC50, 10 μM NBT, pH 7.8, 25 °C
PC12 cells [4] = assay: Inhibition of STS-induced cell death in PC12 cells; assay type: cell-based, rat; details: STS 5 μM, 18–24 h, XTT viability
[5] = In vitro stability in simulated gastric fluid; assay type: in vitro ADME; details: intact compound after 90 min at 37 °C, pH approximately 1.2, HPLC
Octanol partitioning = assay type: physicochemical; details: octanol/aqueous; ± SD of triplicates
[6] = In vivo oral availability, plasma levels after intragastric gavage; design: species or system Sprague–Dawley rats; details: rat, mean ± SD; for Plasma concentration 30 min: dose per compound 0.23-2.7 mg kg^−1
serum albumin = serum albumin (Homo sapiens, UniProt P02768); assay: In vitro binding to serum albumin; details: data not shown
Chain of serum albumin (P02768 25-609 limits assumed): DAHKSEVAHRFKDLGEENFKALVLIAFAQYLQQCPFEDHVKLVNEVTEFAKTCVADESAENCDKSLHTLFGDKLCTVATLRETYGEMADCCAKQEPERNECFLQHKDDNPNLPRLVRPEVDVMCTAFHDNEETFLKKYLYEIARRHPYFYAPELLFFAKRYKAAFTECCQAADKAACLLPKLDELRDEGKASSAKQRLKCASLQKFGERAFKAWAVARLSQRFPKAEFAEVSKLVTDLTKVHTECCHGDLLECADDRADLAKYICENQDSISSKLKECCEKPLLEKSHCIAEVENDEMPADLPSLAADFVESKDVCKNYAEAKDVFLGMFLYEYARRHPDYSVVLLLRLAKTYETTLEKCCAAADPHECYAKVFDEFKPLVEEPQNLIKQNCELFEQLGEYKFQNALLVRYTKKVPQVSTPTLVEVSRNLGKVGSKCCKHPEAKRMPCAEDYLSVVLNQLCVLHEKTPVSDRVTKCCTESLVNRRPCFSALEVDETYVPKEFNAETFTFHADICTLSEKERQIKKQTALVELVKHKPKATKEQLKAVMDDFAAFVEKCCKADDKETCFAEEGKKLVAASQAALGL

[7] = tested on: capillary endothelial cells; details: endothelial cell culture model; cited from earlier work
[8] = tested on: capillary endothelial cells; details: cited from earlier work
[9] = Peroxidase activity with tetramethyl benzidine as substrate; details: 5 μM sample, 0.2 mM hydrogen peroxide, 0.225 mM TMB, 27 °C; ± SD of triplicates
[10] = Catalase activity, disappearance of hydrogen peroxide; details: initial hydrogen peroxide 100 μM; ± SD of triplicates
PC12 cells [11] = assay: Cytotoxicity in PC12 cells; assay type: cell-based, rat; details: data not shown
[12] = EUK-425 plasma levels after PO versus IV administration; assay type: in vivo, Sprague–Dawley rats; details: rats, 5 mg kg^−1 PO, 1 mg kg^−1 IV
[13] = tested on: capillary endothelial cells; assay: Mitigation of ionizing radiation-induced apoptosis in endothelial cell culture; assay type: cell-based; details: endothelial cell culture model; unpublished data
[14] = tested on: capillary endothelial cells; assay: Cytotoxicity in endothelial cell culture model; assay type: cell-based; details: unpublished data

| Compound | IC50 [3] | Protection of PC12 cells against STS-induced cell death (PC12 cells [4]) | SGF stability [5] | Log10 P (Octanol partitioning) | P (octanol partitioning coefficient) (Octanol partitioning) | Plasma concentration 30 min [6] | Plasma concentration 60 min [6] | Plasma concentration 120 min [6] | Plasma concentration 240 min [6] | Plasma concentration 360 min [6] | Binding to serum albumin (serum albumin) | POD [9] | CAT [10] | Cytotoxicity in PC12 cells (PC12 cells [11]) | other results |
| --- | --- | --- | --- | --- | --- | --- | --- | --- | --- | --- | --- | --- | --- | --- | --- |
| COC(=O)c1c2nc(c(C(F)(F)F)c3ccc([n-]3)c(C(=O)OC)c3nc(c(C(F)(F)F)c4ccc1[n-]4)C=C3)C=C2.[Cl-].[Mn+3] [AEOL11207, 5,15-bis(methoxycarbonyl)-10,20-bistrifluoromethylporphyrinato manganese(III) chloride, reference compound] | – | – | – | – | – | – | – | – | – | – | – | – | – | – | Presence in brain tissue ([1]; mice, after subcutaneous or oral administration): present in the brain tissue; SOD activity, fold less active than Cu/Zn SOD ([2]; normalized to Cu/Zn SOD, assay methods differed): 123 fold |
| C1=Cc2nc1cc1ccc([n-]1)c(C1CC1)c1nc(cc3ccc([n-]3)c2C2CC2)C=C1.CC(=O)[O-].[Mn+3] [EUK-418, manganese(III) 5,15-dicyclopropylporphine acetate] | 1.73 µM | protect PC12 cells against STS-induced cell death; also recorded: relatively poor protector | 92% | 0.548 ± 0.009 | 3.53 ± 0.14 | 128 ± 83 ng/mL | 250 ± 147 ng/mL | 245 ± 145 ng/mL | 299 ± 224 ng/mL | 259 ± 166 ng/mL | bind to serum albumin | 0.63 ± 0.08 μM TMB min^−1 | 0.47 ± 0.10 μM H2O2 min^−1 | – | Mitigation of apoptosis induced by ionizing radiation [7]: mitigated apoptosis induced by ionizing radiation; Cytotoxicity in endothelial cell culture model [8]: greatest cytotoxicity; Oral bioavailability in mice [1]: orally bioavailable in mice; Tissue distribution after oral administration ([1]; mice, selected tissues): kidney > liver > lung ≫ brain |
| C1=Cc2nc1cc1ccc([n-]1)c(-c1ccccc1)c1nc(cc3ccc([n-]3)c2-c2ccccc2)C=C1.CC(=O)[O-].[Mn+3] [EUK-423, manganese(III) 5,15-diphenylporphine acetate] | – | protect PC12 cells against STS-induced cell death; also recorded: most protective | 91% | 0.907 ± 0.002 | 8.07 ± 0.10 | 25 ± 7 ng/mL | 53 ± 19 ng/mL | 48 ± 23 ng/mL | 110 ± 61 ng/mL | 118 ± 17 ng/mL | bind to serum albumin | 0.61 ± 0.05 μM TMB min^−1 | 0.45 ± 0.18 μM H2O2 min^−1 | – | Mitigation of apoptosis induced by ionizing radiation [7]: mitigated apoptosis induced by ionizing radiation; Cytotoxicity in endothelial cell culture model [8]: intermediate toxicity |
| O=C(O)c1ccc(-c2c3nc(c(-c4ccc(C(=O)O)cc4)c4ccc([n-]4)c(-c4ccc(C(=O)O)cc4)c4nc(c(-c5ccc(C(=O)O)cc5)c5ccc2[n-]5)C=C4)C=C3)cc1.[Mn+3] [MnTBAP, manganese(III) tetrakis(4-benzoic acid) porphyrin] | – | – | – | – | – | – | – | – | – | – | – | – | – | – | SOD activity ([2]; earlier reported activity due to Mn aggregate impurities): no SOD activity |
| manganese(III) 5,10,15,20-tetraethylporphine acetate [EUK-425] | 12.5 µM | not significantly protective; also recorded: no cytoprotective activity | 97% | 0.932 ± 0.006 | 8.56 ± 0.35 | 52 ± 19 ng/mL | 48 ± 21 ng/mL | 78 ± 47 ng/mL | 96 ± 20 ng/mL | – | bind to serum albumin | 0.58 ± 0.03 μM TMB min^−1 | 0.57 ± 0.15 μM H2O2 min^−1 | cytotoxic; also recorded: most cytotoxic | Detection in plasma by LC-MS/MS after oral gavage and intravenous injection [12]: detected in plasma |
| manganese(III) 5,15-di-3,4-dimethoxyphenylporphine acetate [EUK-450] | 6.39 µM | not significantly protective; also recorded: no cytoprotective activity | 98% | 0.650 ± 0.010 | 4.46 ± 0.11 | 11 ± 10 ng/mL | 15 ± 9 ng/mL | 48 ± 46 ng/mL | 53 ± 53 ng/mL | 47 ± 38 ng/mL | – | 0.66 ± 0.10 μM TMB min^−1 | 0.58 ± 0.08 μM H2O2 min^−1 | cytotoxic; also recorded: most cytotoxic | – |
| manganese(III) 5,15-dicyclohexylporphine chloride [EUK-452] | 11.6 µM | not significantly protective; also recorded: no cytoprotective activity | 98% | 1.973 ± 0.008 | 94.0 ± 1.7 | 57 ± 50 ng/mL | 52 ± 42 ng/mL | 75 ± 63 ng/mL | 75 ± 76 ng/mL | 71 ± 63 ng/mL | – | 0.63 ± 0.05 μM TMB min^−1 | 0.54 ± 0.06 μM H2O2 min^−1 | cytotoxic; also recorded: most cytotoxic | – |
| manganese(III) 5,15-dipropylporphine chloride [EUK-453] | 5.95 µM | not significantly protective; also recorded: no cytoprotective activity | 98% | 0.619 ± 0.017 | 4.16 ± 0.16 | 8.8 ± 5.9 ng/mL | 8.1 ± 5.5 ng/mL | 7.7 ± 6.1 ng/mL | 7.7 ± 6.0 ng/mL | 4.6 ± 4.2 ng/mL | – | 0.56 ± 0.03 μM TMB min^−1 | 0.50 ± 0.11 μM H2O2 min^−1 | cytotoxic; also recorded: most cytotoxic | – |
| manganese(III) 5,15-ditetrahydropyranyoporphine chloride [EUK-451] | 3.36 µM | protect PC12 cells against STS-induced cell death; also recorded: most protective | 100% | −0.660 ± 0.011 | 0.22 ± 0.01 | 44 ± 38 ng/mL | 61 ± 54 ng/mL | 66 ± 62 ng/mL | 107 ± 102 ng/mL | 86 ± 70 ng/mL | – | 0.59 ± 0.023 μM TMB min^−1 | 0.64 ± 0.25 μM H2O2 min^−1 | – | Mitigation of apoptosis induced by ionizing radiation [13]: potent mitigator; Cytotoxicity in endothelial cell culture model [14]: significantly lower cytotoxicity than the other EUK-400 compounds |
